Assay: excess molar enthalpy (molar enthalpy of mixing); xn = mol fraction of the nth substance listed
Settings: 298.15 K, 100 kPa, Liquid, Isoperibol calorimetry

CCCOCC(C)O (stereo not given) [1-propoxy-2-propanol] + O
Settings | excess molar enthalpy [kcal/mol]
x1 = 0.00199 | -0.012
x1 = 0.00509 | -0.0263
x1 = 0.00988 | -0.0454
x1 = 0.01524 | -0.0693
x1 = 0.02082 | -0.0765
x1 = 0.02573 | -0.0884
x1 = 0.0299 | -0.11
x1 = 0.03983 | -0.12
x1 = 0.05248 | -0.124
x1 = 0.09463 | -0.141
x1 = 0.09856 | -0.141
x1 = 0.1198 | -0.146
x1 = 0.1284 | -0.146
x1 = 0.1504 | -0.148
x1 = 0.1711 | -0.148
x1 = 0.2286 | -0.148
x1 = 0.297 | -0.141
x1 = 0.3791 | -0.131
x1 = 0.4088 | -0.129
x1 = 0.4372 | -0.124
x1 = 0.494 | -0.105
x1 = 0.5971 | -0.0837
x1 = 0.6988 | -0.0669
x1 = 0.7467 | -0.0598
x1 = 0.8056 | -0.0478
x1 = 0.8534 | -0.0382
x1 = 0.8713 | -0.0335
x1 = 0.9051 | -0.0263
x1 = 0.9205 | -0.0215
x1 = 0.9499 | -0.0143

Reference: the NIST ThermoML archive (doi:10.1016/j.jct.2015.07.044)
